We go through 12 compounds from US12539292B2, “BRM targeting compounds and associated methods of use” (Arvinas Operations, Inc., priority 2018, dated 2026).

The target of the test is T1, BRM (Homo sapiens, UniProt P51531).
T1 construct: In-Cell Western Screen of BRM Degradation in SW1573 Cells; endogenous in cells; host or cells: SW1573
The experiment in a line: In-cell Western screen of BRM degradation in SW1573 cells (Dmax and DC50). The class given is cell-based. Particulars: for Dmax: SW1573, % degraded, when tested at the top concentration of between 0.3 and 10 μM, read-out: BRM Dmax (%); for DC50: target protein degradation, read-out: BRM DC50. In short, it runs like this: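 SW1573 cells were treated overnight (18-20 hours) with compound at 0.1% final DMSO. They were then PFA-fixed, permeabilised with Triton X-100 and immunostained with 800 nm/680 nm secondary antibodies. BRM signal was quantified by LI-COR in-cell Western imaging to derive Dmax and DC50.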

SMILES strings stand for the structures.

T1 sequence (P51531 whole entry): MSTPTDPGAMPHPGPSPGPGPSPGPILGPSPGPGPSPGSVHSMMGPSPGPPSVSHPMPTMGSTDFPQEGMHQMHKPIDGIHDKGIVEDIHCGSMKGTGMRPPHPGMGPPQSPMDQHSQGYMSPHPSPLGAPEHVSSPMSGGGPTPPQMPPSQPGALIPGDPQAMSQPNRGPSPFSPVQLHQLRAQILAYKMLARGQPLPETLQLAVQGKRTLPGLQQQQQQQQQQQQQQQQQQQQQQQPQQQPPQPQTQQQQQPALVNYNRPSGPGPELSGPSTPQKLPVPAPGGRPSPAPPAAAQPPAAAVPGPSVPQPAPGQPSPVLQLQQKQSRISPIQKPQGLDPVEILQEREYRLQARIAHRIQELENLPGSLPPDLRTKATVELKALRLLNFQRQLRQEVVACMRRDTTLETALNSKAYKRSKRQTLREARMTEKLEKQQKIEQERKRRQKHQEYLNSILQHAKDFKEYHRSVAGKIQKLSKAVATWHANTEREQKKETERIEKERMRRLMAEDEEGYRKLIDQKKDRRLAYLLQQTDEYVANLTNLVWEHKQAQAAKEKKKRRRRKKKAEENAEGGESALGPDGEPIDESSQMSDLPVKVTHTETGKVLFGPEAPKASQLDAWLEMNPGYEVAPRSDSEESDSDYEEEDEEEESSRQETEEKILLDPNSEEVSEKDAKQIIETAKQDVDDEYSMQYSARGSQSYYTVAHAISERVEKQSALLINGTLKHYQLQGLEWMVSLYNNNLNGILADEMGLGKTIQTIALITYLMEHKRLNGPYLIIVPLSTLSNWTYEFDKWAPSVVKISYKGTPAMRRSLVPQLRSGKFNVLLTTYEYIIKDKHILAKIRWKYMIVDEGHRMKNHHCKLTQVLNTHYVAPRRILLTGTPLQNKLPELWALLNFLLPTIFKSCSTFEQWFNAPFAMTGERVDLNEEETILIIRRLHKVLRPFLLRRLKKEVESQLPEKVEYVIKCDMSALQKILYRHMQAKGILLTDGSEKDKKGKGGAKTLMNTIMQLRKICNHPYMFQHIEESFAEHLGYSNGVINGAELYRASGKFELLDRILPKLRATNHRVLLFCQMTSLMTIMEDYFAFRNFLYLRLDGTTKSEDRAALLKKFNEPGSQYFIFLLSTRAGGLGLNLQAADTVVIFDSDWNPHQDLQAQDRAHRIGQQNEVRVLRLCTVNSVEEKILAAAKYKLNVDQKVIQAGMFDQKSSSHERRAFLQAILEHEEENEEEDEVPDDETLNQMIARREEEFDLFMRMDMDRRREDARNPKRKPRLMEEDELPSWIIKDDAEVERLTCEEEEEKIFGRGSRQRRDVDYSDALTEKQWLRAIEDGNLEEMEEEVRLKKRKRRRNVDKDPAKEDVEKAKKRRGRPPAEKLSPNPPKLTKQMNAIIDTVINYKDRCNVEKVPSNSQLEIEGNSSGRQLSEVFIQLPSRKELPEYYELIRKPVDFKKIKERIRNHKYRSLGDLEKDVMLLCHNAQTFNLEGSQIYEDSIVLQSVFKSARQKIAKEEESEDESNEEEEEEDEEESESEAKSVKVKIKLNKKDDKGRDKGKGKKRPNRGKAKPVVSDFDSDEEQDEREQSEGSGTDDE

Turning to `Cc1ncsc1-c1ccc([C@H](C)NC(=O)[C@@H]2C[C@@H](O)CN2C(=O)[C@@H](c2cc(OCCN3CCC(O[C@H]4C[C@H](OCCN5CCOC6(CCN(c7cc(-c8ccccc8O)nnc7N)CC6)C5)C4)CC3)no2)C(C)C)cc1` [compound 359, (2S,4R)-1-((R)-2-(3-(2-(4-((1r,3R)-3-(2-(9-(3-amino-6-(2-hydroxyphenyl)pyridazin-4-yl)-1-oxa-4,9-diazaspiro[5.5]undecan-4-yl)ethoxy)cyclobutoxy)piperidin-1-yl)cthoxy)isoxazol-5-yl)-3-methylbutanoyl)-4-hydroxy-N-((S)-1-(4-(4-methylthiazol-5-yl)phenyl)ethyl)pyrrolidine-2-carboxamide], the Dmax – broadly, the greatest extent of degradation seen – is more than 75% and the DC50 (usually the midpoint of the concentration-degradation curve) was less than 2.5 nM.
In the same order, the values of `Cc1ncsc1-c1ccc([C@H](C)NC(=O)[C@@H]2C[C@@H](O)CN2C(=O)[C@@H](c2cc(OCCN3C[C@H]4C[C@@H](O[C@H]5C[C@H](Oc6cc(N7C8CCC7CN(c7cc(-c9ccccc9O)nnc7N)C8)ccn6)C5)C[C@H]4C3)no2)C(C)C)cc1` [compound 360, (2S,4R)-1-((2R)-2-(3-(2-((3aR,5R,6aS)-5-((1r,3R)-3-((4-(3-(3-amino-6-(2-hydroxyphenyl)pyridazin-4-yl)-3,8-diazabicyclo[3.2.1]octan-8-yl)pyridin-2-yl)oxy)cyclobutoxy)hexahydrocyclopenta[c]pyrrol-2(1H)-yl)ethoxy)isoxazol-5-yl)-3-methylbutanoyl)-4-hydroxy-N-((S)-1-(4-(4-methylthiazol-5-yl)phenyl)ethyl)pyrrolidine-2-carboxamide] are more than 75% and less than 2.5 nM.
For the compound `Cc1ncsc1-c1ccc([C@H](C)NC(=O)C2C[C@@H](O)CN2C(=O)[C@H](c2onc(OCCN3CCC(O[C@H]4C[C@H](Oc5cc(N6C7CCC6CN(c6cc(-c8ccccc8O)nnc6N)C7)ccn5)C4)CC3)c2Cl)C(C)C)cc1` (stereo partly drawn) [compound 361, (2S,4R)-1-((2S)-2-(3-(2-(4-((1r,3S)-3-((4-(3-(3-amino-6-(2-hydroxyphenyl)pyridazin-4-yl)-3,8-diazabicyclo[3.2.1]octan-8-yl)pyridin-2-yl)oxy)cyclobutoxy)piperidin-1-yl)ethoxy)-4-chloroisoxazol-5-yl)-3-methylbutanoyl)-4-hydroxy-N-((S)-1-(4-(4-methylthiazol-5-yl)phenyl)ethyl)pyrrolidine-2-carboxamide], the 50% degradation concentration (DC50) is more than 30 nM.
As to `Cc1ncsc1-c1ccc([C@H](C)NC(=O)C2C[C@@H](O)CN2C(=O)[C@@H](c2onc(OCCN3CCC(O[C@H]4C[C@H](Oc5cc(N6C7CCC6CN(c6cc(-c8ccccc8O)nnc6N)C7)ccn5)C4)CC3)c2Cl)C(C)C)cc1` (stereo partly drawn) [compound 362, (2S,4R)-1-((2R)-2-(3-(2-(4-((1r,3R)-3-((4-(3-(3-amino-6-(2-hydroxyphenyl)pyridazin-4-yl)-3,8-diazabicyclo[3.2.1]octan-8-yl)pyridin-2-yl)oxy)cyclobutoxy)piperidin-1-yl)ethoxy)-4-chloroisoxazol-5-yl)-3-methylbutanoyl)-4-hydroxy-N-((S)-1-(4-(4-methylthiazol-5-yl)phenyl)ethyl)pyrrolidine-2-carboxamide], the Dmax is more than 75% and the 50% degradation concentration (DC50) was less than 2.5 nM.
Regarding `CC(C)[C@H](C(=O)N1C[C@H](O)C[C@H]1C(=O)N[C@@H](C)c1ccc(-c2nncs2)cc1)c1cc(OCCN2CCC(O[C@H]3C[C@H](Oc4cc(N5C6CCC5CN(c5cc(-c7ccccc7O)nnc5N)C6)ccn4)C3)CC2)no1` [compound 363, (2S,4R)-N-((S)-1-(4-(1,3,4-thiadiazol-2-yl)phenyl)ethyl)-1-((2S)-2-(3-(2-(4-((1r,3S)-3-((4-(3-(3-amino-6-(2-hydroxyphenyl)pyridazin-4-yl)-3,8-diazabicyclo[3.2.1]octan-8-yl)pyridin-2-yl)oxy)cyclobutoxy)piperidin-1-yl)ethoxy)isoxazol-5-yl)-3-methylbutanoyl)-4-hydroxypyrrolidine-2-carboxamide], the half-maximal degradation concentration (DC50) is more than 30 nM.
Regarding `CC(C)[C@@H](C(=O)N1C[C@H](O)C[C@H]1C(=O)N[C@@H](C)c1ccc(-c2nncs2)cc1)c1cc(OCCN2CCC(O[C@H]3C[C@H](Oc4cc(N5C6CCC5CN(c5cc(-c7ccccc7O)nnc5N)C6)ccn4)C3)CC2)no1` [compound 364, (2S,4R)-N-((S)-1-(4-(1,3,4-thiadiazol-2-yl)phenyl)ethyl)-1-((2R)-2-(3-(2-(4-((1r,3R)-3-((4-(3-(3-amino-6-(2-hydroxyphenyl)pyridazin-4-yl)-3,8-diazabicyclo[3.2.1]octan-8-yl)pyridin-2-yl)oxy)cyclobutoxy)piperidin-1-yl)ethoxy)isoxazol-5-yl)-3-methylbutanoyl)-4-hydroxypyrrolidine-2-carboxamide], the maximal degradation (Dmax) is more than 75% and the DC50 was more than 30 nM.
For the compound `Cc1ncn(C)c1-c1ccc([C@H](C)NC(=O)[C@@H]2C[C@@H](O)CN2C(=O)[C@H](c2cc(OCCN3CCC(O[C@H]4C[C@H](Oc5cc(N6C7CCC6CN(c6cc(-c8ccccc8O)nnc6N)C7)ccn5)C4)CC3)no2)C(C)C)cc1` [compound 365, (2S,4R)-1-((2S)-2-(3-(2-(4-((1r,3S)-3-((4-(3-(3-amino-6-(2-hydroxyphenyl)pyridazin-4-yl)-3,8-diazabicyclo[3.2.1]octan-8-yl)pyridin-2-yl)oxy)cyclobutoxy)piperidin-1-yl)ethoxy)isoxazol-5-yl)-3-methylbutanoyl)-N-((S)-1-(4-(1,4-dimethyl-1H-imidazol-5-yl)phenyl)ethyl)-4-hydroxypyrrolidine-2-carboxamide], the DC50 was more than 30 nM.
As to `Cc1ncn(C)c1-c1ccc([C@H](C)NC(=O)[C@@H]2C[C@@H](O)CN2C(=O)[C@@H](c2cc(OCCN3CCC(O[C@H]4C[C@H](Oc5cc(N6C7CCC6CN(c6cc(-c8ccccc8O)nnc6N)C7)ccn5)C4)CC3)no2)C(C)C)cc1` [compound 366, (2S,4R)-1-((2R)-2-(3-(2-(4-((1r,3R)-3-((4-(3-(3-amino-6-(2-hydroxyphenyl)pyridazin-4-yl)-3,8-diazabicyclo[3.2.1]octan-8-yl)pyridin-2-yl)oxy)cyclobutoxy)piperidin-1-yl)ethoxy)isoxazol-5-yl)-3-methylbutanoyl)-N-((S)-1-(4-(1,4-dimethyl-1H-imidazol-5-yl)phenyl)ethyl)-4-hydroxypyrrolidine-2-carboxamide], the Dmax was more than 75% and the DC50 fell in the range of 2.5 to 10 nM.
In the same order, the values of `Cc1ncsc1-c1ccc([C@H](C)NC(=O)[C@@H]2C[C@@H](O)CN2C(=O)[C@H](c2cc(OCCN3CCC(O[C@H]4C[C@H](Oc5cc(N6C7CCC6CN(c6cc(-c8ccccc8O)nnc6N)C7)ccn5)C4)CC3)no2)C(C)C)nc1` [compound 367, (2S,4R)-1-((2S)-2-(3-(2-(4-((1r,3S)-3-((4-(3-(3-amino-6-(2-hydroxyphenyl)pyridazin-4-yl)-3,8-diazabicyclo[3.2.1]octan-8-yl)pyridin-2-yl)oxy)cyclobutoxy)piperidin-1-yl)ethoxy)isoxazol-5-yl)-3-methylbutanoyl)-4-hydroxy-N-((S)-1-(5-(4-methylthiazol-5-yl)pyridin-2-yl)ethyl)pyrrolidine-2-carboxamide] are more than 75% and more than 30 nM.
On the same counts, the results for `Cc1ncsc1-c1ccc([C@H](C)NC(=O)[C@@H]2C[C@@H](O)CN2C(=O)[C@@H](c2cc(OCCN3CCC(O[C@H]4C[C@H](Oc5cc(N6C7CCC6CN(c6cc(-c8ccccc8O)nnc6N)C7)ccn5)C4)CC3)no2)C(C)C)nc1` [compound 368, (2S,4R)-1-((2R)-2-(3-(2-(4-((1r,3R)-3-((4-(3-(3-amino-6-(2-hydroxyphenyl)pyridazin-4-yl)-3,8-diazabicyclo[3.2.1]octan-8-yl)pyridin-2-yl)oxy)cyclobutoxy)piperidin-1-yl)ethoxy)isoxazol-5-yl)-3-methylbutanoyl)-4-hydroxy-N-((S)-1-(5-(4-methylthiazol-5-yl)pyridin-2-yl)ethyl)pyrrolidine-2-carboxamide] are more than 75% and less than 2.5 nM.
In the same order, the values of `Cc1ncsc1-c1ccc([C@H](C)NC(=O)[C@@H]2C[C@@H](O)CN2C(=O)[C@H](c2cc(OC3CN(CCN4CCC(O[C@H]5C[C@H](Oc6cc(N7C8CCC7CN(c7cc(-c9ccccc9O)nnc7N)C8)ccn6)C5)CC4)C3)no2)C(C)C)cc1` [compound 370, (2S,4R)-1-((2S)-2-(3-((1-(2-(4-((1r,3r)-3-((4-(3-(3-amino-6-(2-hydroxyphenyl)pyridazin-4-yl)-3,8-diazabicyclo[3.2.1]octan-8-yl)pyridin-2-yl)oxy)cyclobutoxy)piperidin-1-yl)ethyl)azetidin-3-yl)oxy)isoxazol-5-yl)-3-methylbutanoyl)-4-hydroxy-N-((S)-1-(4-(4-methylthiazol-5-yl)phenyl)ethyl)pyrrolidine-2-carboxamide] are more than 75% and 10 to 30 nM.
For the compound `Cc1ncsc1-c1ccc([C@H](C)NC(=O)[C@@H]2C[C@@H](O)CN2C(=O)[C@@H](c2cc(OC3CN(CCN4CCC(O[C@H]5C[C@H](Oc6cc(N7C8CCC7CN(c7cc(-c9ccccc9O)nnc7N)C8)ccn6)C5)CC4)C3)no2)C(C)C)cc1` [compound 371, (2S,4R)-1-((2R)-2-(3-((1-(2-(4-((1r,3r)-3-((4-(3-(3-amino-6-(2-hydroxyphenyl)pyridazin-4-yl)-3,8-diazabicyclo[3.2.1]octan-8-yl)pyridin-2-yl)oxy)cyclobutoxy)piperidin-1-yl)ethyl)azetidin-3-yl)oxy)isoxazol-5-yl)-3-methylbutanoyl)-4-hydroxy-N-((S)-1-(4-(4-methylthiazol-5-yl)phenyl)ethyl)pyrrolidine-2-carboxamide], the maximal degradation (Dmax) is more than 75% and the DC50 was less than 2.5 nM.
